Results as given in the supplement of paper PMC10331698.
± gives the standard deviation of the averaged measurements.

Experiments:
Assay in all cases: LOEC (log10 uM (lowest observed effect concentration))
[1] = compound: O=C(O)C(F)(F)C(F)(F)C(F)(F)C(F)(F)C(F)(F)C(F)(F)C(F)(F)C(F)(F)Cl [9-Chloro-perfluorononanoic acid]
Description: (§1)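 BioMAP Diversity Plus panel in human primary cell co-cultures, 4 concentrations in duplicate blinded samples. Responses are log10 fold change versus DMSO control, processed with tcpl v2.1.0. A hit is called when responses at any concentration exceed the cutoff (the larger of 3*bmad or log10(1.2)); the lowest observed effect concentration (modl_ga, log10 uM) is reported for hits.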

[2] = compound: CNS(=O)(=O)C(F)(F)C(F)(F)C(F)(F)C(F)(F)C(F)(F)C(F)(F)C(F)(F)C(F)(F)F [N-Methylperfluorooctanesulfonamide]
Description: as §1

[3] = compound: C=CC(=O)OCCC(F)(F)C(F)(F)C(F)(F)C(F)(F)F [2-(Perfluorobutyl)ethyl acrylate]
Description: as §1

[4] = compound: O=S(=O)(O)C(F)(F)C(F)(F)C(F)(F)C(F)(F)C(F)(F)C(F)(F)C(F)(F)C(F)(F)F [Perfluorooctanesulfonic acid]
Description: as §1

[5] = compound: O=C(O)C(F)(F)OC(F)(F)C(F)(F)OC(F)(F)C(F)(F)C(F)(F)C(F)(F)F [Perfluoro-3,6-dioxadecanoic acid]
Description: as §1

[6] = compound: O=P(O)(O)CCC(F)(F)C(F)(F)C(F)(F)C(F)(F)C(F)(F)C(F)(F)C(F)(F)C(F)(F)F [((Perfluorooctyl)ethyl)phosphonic acid]
Description: as §1

Azathioprine = compound: Cn1cnc([N+](=O)[O-])c1Sc1ncnc2[nH]cnc12 [Azathioprine]
Description: as §1

Perfluorooctanamidine = compound: N=C(N)C(F)(F)C(F)(F)C(F)(F)C(F)(F)C(F)(F)C(F)(F)C(F)(F)F [Perfluorooctanamidine]
Description: as §1

[7] = compound: O=C(O)C(F)(F)C(F)(F)C(F)(F)C(F)(F)C(F)(F)C(F)(F)C(F)(F)C(F)(F)C(F)(F)C(F)(F)C(F)(F)C(F)(F)F [Perfluorotridecanoic acid]
Description: as §1

[8] = compound: O=C(O)C(F)(F)C(F)(F)C(F)(F)C(F)(F)C(F)(F)C(F)(F)C(F)(F)C(F)(F)C(F)(F)C(F)(F)C(F)(F)C(F)(F)C(F)(F)F [Perfluorotetradecanoic acid]
Description: as §1

[9] = compound: O=S(=O)(O)C(F)(F)C(F)(F)C(F)(F)C(F)(F)C(F)(F)C(F)(F)C(F)(F)C(F)(F)F [Potassium perfluorooctanesulfonate]
Description: as §1

Test System: LPS MCP1 down
- LOEC (log10 uM) [1]: 1.78

Test System: CASM3C MIG down
- LOEC (log10 uM) [2]: 1.07 ± 0.32
- LOEC (log10 uM) [3]: 1.78

Test System: BF4T MMP1 down
- LOEC (log10 uM) [1]: 1.78

Test System: LPS MCSF up
- LOEC (log10 uM) [1]: 1.78

Test System: BE3C uPAR down
- LOEC (log10 uM) [1]: 1.78

Test System: hDFCGF SRB down
- LOEC (log10 uM) [1]: 1.78

Test System: BE3C MIG down
- LOEC (log10 uM) [1]: 1.78
- LOEC (log10 uM) [4]: 1.78

Test System: SAg MCP1 down
- LOEC (log10 uM) [1]: 1.78
- LOEC (log10 uM) [3]: 1.78

Test System: hDFCGF MCP1 down
- LOEC (log10 uM) [1]: 1.78

Test System: IMphg SRB down
- LOEC (log10 uM) [1]: 1.78

Test System: KF3CT MCP1 down
- LOEC (log10 uM) [1]: 1.78

Test System: BF4T Eotaxin3 down
- LOEC (log10 uM) [1]: 0.801 ± 0.71
- LOEC (log10 uM) [5]: 0.845
- LOEC (log10 uM) [6]: 1.54 ± 0.34

Test System: BT sIgG down
- LOEC (log10 uM) [3]: 1.78
- LOEC (log10 uM) (Azathioprine): -0.0458

Test System: LPS PGE2 down
- LOEC (log10 uM) [1]: 1.78
- LOEC (log10 uM) [5]: 1.3

Test System: KF3CT PAI1 up
- LOEC (log10 uM) [2]: 0.801 ± 0.71

Test System: BT Bcell Proliferation up
- LOEC (log10 uM) [1]: 1.78

Test System: LPS VCAM1 down
- LOEC (log10 uM) [3]: 1.78
- LOEC (log10 uM) (Azathioprine): 1.22 ± 0.37
- LOEC (log10 uM) (Perfluorooctanamidine): 1.78
- LOEC (log10 uM) [5]: 1.78

Test System: IMphg CD40 down
- LOEC (log10 uM) [1]: 1.78
- LOEC (log10 uM) (Azathioprine): 1.48
- LOEC (log10 uM) [5]: 1.78
- LOEC (log10 uM) [7]: 1.48

Test System: 3C Eselectin down
- LOEC (log10 uM) [3]: 1.78

Test System: LPS CD40 down
- LOEC (log10 uM) [3]: 1.78
- LOEC (log10 uM) (Perfluorooctanamidine): 1.78
- LOEC (log10 uM) [6]: 1.78

Test System: BF4T Keratin818 down
- LOEC (log10 uM) [1]: 1.78

Test System: KF3CT IL1a down
- LOEC (log10 uM) [1]: 1.78
- LOEC (log10 uM) [7]: 1.22 ± 0.37

Test System: KF3CT ICAM1 down
- LOEC (log10 uM) [1]: 1.78

Test System: 4H VEGFRII down
- LOEC (log10 uM) [7]: 1.48

Test System: 3C MCP1 down
- LOEC (log10 uM) [1]: 1.78

Test System: 4H VCAM1 down
- LOEC (log10 uM) [8]: 0.0731 ± 0.32
- LOEC (log10 uM) [1]: 1.78
- LOEC (log10 uM) (Azathioprine): 1.48
- LOEC (log10 uM) (Perfluorooctanamidine): 1.78
- LOEC (log10 uM) [7]: 0.716 ± 0.34

Test System: MyoF CollagenIV up
- LOEC (log10 uM) [1]: 1.3
- LOEC (log10 uM) [2]: 0.845
- LOEC (log10 uM) [5]: 1.78

Test System: IMphg ESelectin down
- LOEC (log10 uM) [2]: 0.845
- LOEC (log10 uM) (Azathioprine): 1.48

Test System: MyoF TIMP1 up
- LOEC (log10 uM) [5]: 1.3

Test System: LPS IL8 up
- LOEC (log10 uM) [1]: 1.54 ± 0.34

Test System: 4H Eotaxin3 down
- LOEC (log10 uM) [8]: 0.345 ± 0.71
- LOEC (log10 uM) (Perfluorooctanamidine): 1.78
- LOEC (log10 uM) [6]: 1.78

Test System: BF4T SRB down
- LOEC (log10 uM) [1]: 1.78

Test System: MyoF ACTA1 down
- LOEC (log10 uM) [1]: 1.78

Test System: KF3CT SRB down
- LOEC (log10 uM) [1]: 1.78

Test System: BE3C tPA down
- LOEC (log10 uM) [1]: 1.78
- LOEC (log10 uM) (Azathioprine): 1.22 ± 0.37
- LOEC (log10 uM) [5]: 1.78

Test System: BF4T VCAM1 down
- LOEC (log10 uM) [1]: 1.3
- LOEC (log10 uM) (Azathioprine): 1.48

Test System: SAg PBMCCytotoxicity down
- LOEC (log10 uM) [3]: 1.78
- LOEC (log10 uM) (Perfluorooctanamidine): 1.78

Test System: hDFCGF ICAM1 down
- LOEC (log10 uM) [1]: 1.07 ± 0.32
- LOEC (log10 uM) [2]: 1.78
- LOEC (log10 uM) [3]: 1.78

Test System: hDFCGF ITAC down
- LOEC (log10 uM) [1]: 0.573 ± 0.39
- LOEC (log10 uM) [3]: 1.07 ± 0.32
- LOEC (log10 uM) (Azathioprine): 0.977 ± 0.71
- LOEC (log10 uM) [5]: 1.54 ± 0.34
- LOEC (log10 uM) [9]: 1.78
- LOEC (log10 uM) [7]: 0.239 ± 0.34

Test System: BE3C uPAR up
- LOEC (log10 uM) [9]: 1.54 ± 0.34

Test System: IMphg MCP1 down
- LOEC (log10 uM) [1]: 1.78

Test System: IMphg ESelectin up
- LOEC (log10 uM) [4]: 1.78
- LOEC (log10 uM) [9]: 1.78
- LOEC (log10 uM) [6]: 1.78

Test System: BE3C Keratin818 down
- LOEC (log10 uM) [1]: 1.78

Test System: SAg CD69 down
- LOEC (log10 uM) [1]: 1.78
- LOEC (log10 uM) [3]: 1.78
- LOEC (log10 uM) (Azathioprine): 1.48

Test System: BE3C IL8 down
- LOEC (log10 uM) [1]: 1.54 ± 0.34
- LOEC (log10 uM) [2]: 1.54 ± 0.34
- LOEC (log10 uM) [4]: 1.3

Test System: hDFCGF MCSF down
- LOEC (log10 uM) [1]: 1.78
- LOEC (log10 uM) [3]: 1.3
- LOEC (log10 uM) (Azathioprine): 1.48
- LOEC (log10 uM) (Perfluorooctanamidine): 1.78
- LOEC (log10 uM) [5]: 1.78
- LOEC (log10 uM) [9]: 1.78

Test System: LPS Thrombomodulin up
- LOEC (log10 uM) [1]: 1.78

Test System: 3C IL8 down
- LOEC (log10 uM) [7]: 1.22 ± 0.37

Test System: 3C VCAM1 down
- LOEC (log10 uM) [1]: 1.78
- LOEC (log10 uM) [3]: 1.54 ± 0.34
- LOEC (log10 uM) (Perfluorooctanamidine): 1.78

Test System: SAg Proliferation down
- LOEC (log10 uM) [3]: 1.54 ± 0.34
- LOEC (log10 uM) (Azathioprine): 0.954
- LOEC (log10 uM) (Perfluorooctanamidine): 1.78

Test System: hDFCGF MMP1 down
- LOEC (log10 uM) [1]: 0.845

Test System: BE3C IP10 down
- LOEC (log10 uM) [1]: 1.3
- LOEC (log10 uM) [4]: 1.3
- LOEC (log10 uM) [5]: 1.54 ± 0.34
- LOEC (log10 uM) [9]: 1.3

Test System: BT Bcell Proliferation down
- LOEC (log10 uM) [3]: 1.78
- LOEC (log10 uM) (Azathioprine): 1.48
- LOEC (log10 uM) (Perfluorooctanamidine): 1.78
- LOEC (log10 uM) [6]: 1.78

Test System: BF4T IL1a down
- LOEC (log10 uM) [1]: 1.78

Test System: hDFCGF EGFR down
- LOEC (log10 uM) [5]: 1.78

Test System: MyoF CollagenI down
- LOEC (log10 uM) [1]: 1.3
- LOEC (log10 uM) [5]: 1.78
- LOEC (log10 uM) [7]: 1.48

Test System: 3C TissueFactor down
- LOEC (log10 uM) [3]: 1.54 ± 0.34

Test System: BE3C HLADR down
- LOEC (log10 uM) [1]: 1.3
- LOEC (log10 uM) [4]: 1.3
- LOEC (log10 uM) [5]: 1.54 ± 0.34
- LOEC (log10 uM) [9]: 1.3

Test System: MyoF PAI1 down
- LOEC (log10 uM) [1]: 1.78

Test System: SAg Eselectin down
- LOEC (log10 uM) [3]: 1.78
- LOEC (log10 uM) (Azathioprine): 1.48

Test System: MyoF MMP1 up
- LOEC (log10 uM) [1]: 1.78

Test System: BT xIL17F down
- LOEC (log10 uM) [3]: 1.3
- LOEC (log10 uM) (Azathioprine): 1.48

Test System: BE3C PAI1 down
- LOEC (log10 uM) [1]: 1.3
- LOEC (log10 uM) [2]: 0.845
- LOEC (log10 uM) [4]: 1.3
- LOEC (log10 uM) [9]: 1.3

Test System: BT xIL6 down
- LOEC (log10 uM) [3]: 1.78
- LOEC (log10 uM) (Azathioprine): 1.48

Test System: LPS CD69 down
- LOEC (log10 uM) [1]: 1.78
- LOEC (log10 uM) (Perfluorooctanamidine): 1.78
- LOEC (log10 uM) [5]: 1.78
